In US20230365592A1 (Agios Pharmaceuticals, Inc., priority 2022, published 2023):

Biological target: T1, human PAH with the R408W mutation (Homo sapiens, UniProt P00439, R408W)
T1 construct: expressed in transfected cells
T1 sequence (P00439 1-452 R408W): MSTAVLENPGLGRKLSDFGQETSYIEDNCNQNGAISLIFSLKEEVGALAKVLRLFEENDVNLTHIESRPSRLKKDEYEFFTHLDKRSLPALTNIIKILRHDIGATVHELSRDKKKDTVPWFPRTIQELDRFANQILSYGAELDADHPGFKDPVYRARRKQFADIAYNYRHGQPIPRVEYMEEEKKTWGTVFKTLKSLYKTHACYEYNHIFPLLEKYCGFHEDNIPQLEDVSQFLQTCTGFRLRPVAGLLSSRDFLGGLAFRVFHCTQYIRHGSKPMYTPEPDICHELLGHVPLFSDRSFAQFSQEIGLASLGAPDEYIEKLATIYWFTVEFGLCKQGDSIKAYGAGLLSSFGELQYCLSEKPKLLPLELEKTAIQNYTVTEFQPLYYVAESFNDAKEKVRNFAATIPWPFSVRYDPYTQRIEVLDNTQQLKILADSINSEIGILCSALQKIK
Experiment: Cell Based Phenylalanine Flux Assay;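 also: after compound treatment, cells received sepiapterin plus isotope-labelled Phenylalanine for 4 hours, then labelled Tyrosine in the medium was quantified, 10-point 2-fold dilution series run in duplicate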
Details: A375 cells expressing R408W PAH; 24 hrs with compound, then 20 µM sepiapterin and 800 µM 13C9,15N-Phenylalanine for 4 hours; 13C-Tyrosine by LC-MS; average where tested multiple times; read-out: AC50

COCc1ccc2c(C(=O)N3CCc4[nH]cnc4C3c3cc4cccc(C(F)F)n4n3)cnn2c1 (centres unmarked) and Cn1ncc(C(=O)N2CCc3[nH]cnc3[C@H]2c2cc3ccccn3n2)c1C(F)F (single isomer, unassigned) fall in the same range of AC50: 1000 to 5000 nM for the first, 1000 to 5000 nM for the second.

Cc1nc(C(C)O)oc1C(=O)N1CCc2[nH]cnc2C1c1cc2ccccn2n1 [4S enantiomer of (1S)-1-14-methyl-5-[4-{pyrazolo[1,5-a]pyrid] and Cn1cc(-c2nnc(C(=O)N3CCc4[nH]cnc4C3c3nn4ccccc4c3Br)o2)cn1 (single isomer, unassigned) fall in the same range of AC50: 1000 to 5000 nM for the first, 1000 to 5000 nM for the second.

For CC(C)(F)c1nnc(N2CCc3[nH]cnc3C2c2cc3c(C(F)(F)F)cccn3n2)o1 (centres unmarked), the AC50 was over 5000 nM.

Same assay, conditions: A375 cells expressing human PAH R408W; 24 hrs compound incubation; 13C-Tyrosine by LC-MS; average where tested multiple times; read-out: AC50

Compared with FC(F)(F)c1nnc(N2CCc3[nH]cnc3[C@H]2c2cc3cccc(Cl)n3n2)o1 [Example 2493, (S)-2-(4-(7-chloropyrazolo[1,5-a]pyridin-2-yl)-1,4,6,7-tetrahydro-5H-imidazo[4,5-c]pyridin-5-yl)-5-(trifluoromethyl)-1,3,4-oxadiazole], Clc1cccn2nc([C@H]3c4nc[nH]c4CCN3c3nnc(-c4ccncn4)o3)cc12 [Example 2183, (R)-2-(4-(4-chloropyrazolo[1,5-a]pyridin-2-yl)-1,4,6,7-tetrahydro-5H-imidazo[4,5-c]pyridin-5-yl)-5-(pyrimidin-4-yl)-1,3,4-oxadiazole] is higher in AC50: 1000 to 5000 nM for the first, over 5000 nM for the second.

Compared with COCc1ccc2c(C(=O)N3CCc4[nH]cnc4[C@@H]3c3cc4c(C)cccn4n3)cnn2c1 [Example 2437, (R)-(6-(methoxymethyl)pyrazolo[1,5-a]pyridin-3-yl)(4-(4-methylpyrazolo[1,5-a]pyridin-2-yl)-6,7-dihydro-1H-imidazo[4,5-c]pyridin-5(4H)-yl)methanone], O=C(c1nnc(C2CC2)s1)N1CCc2[nH]cnc2[C@H]1c1cc2c(F)cccn2n1 [Example 1993, (S)-(5-cyclopropyl-1,3,4-thiadiazol-2-yl)(4-(4-fluoropyrazolo[1,5-a]pyridin-2-yl)-1,4,6,7-tetrahydro-5H-imidazo[4,5-c]pyridin-5-yl)methanone] is lower in AC50: over 5000 nM for the first, under 500 nM for the second.

Same assay, conditions: A375 cells expressing human R408W PAH; 24 hrs compound incubation; 13C-Tyrosine by LC-MS; average where tested multiple times; read-out: AC50

Compared with Cn1nc(C(F)F)nc1C(=O)N1CCc2[nH]cnc2[C@H]1c1cc2c(Cl)cccn2n1 [Example 780, (S)-(4-(4-chloropyrazolo[1,5-a]pyridin-2-yl)-6,7-dihydro-1H-imidazo[4,5-c]pyridin-5(4H)-yl)(3-(difluoromethyl)-1-methyl-1H-1,2,4-triazol-5-yl)methanone], Cc1cccn2nc([C@H]3c4nc[nH]c4CCN3C(=O)c3nnc(C(C)(C)F)o3)cc12 [Example 923, (R)-(5-(2-fluoropropan-2-yl)-1,3,4-oxadiazol-2-yl)(4-(4-methylpyrazolo[1,5-a]pyridin-2-yl)-6,7-dihydro-1H-imidazo[4,5-c]pyridin-5(4H)-yl)methanone] is higher in AC50: under 500 nM for the first, over 5000 nM for the second.

First: CN(C)c1ccc2c(C(=O)N3CCc4[nH]cnc4[C@H]3c3cc4c(C(F)F)cccn4n3)cnn2c1 [Example 1770, (S)-(4-(4-(difluoromethyl)pyrazolo[1,5-a]pyridin-2-yl)-6,7-dihydro-1H-imidazo[4,5-c]pyridin-5(4H)-yl)(6-(dimethylamino)pyrazolo[1,5-a]pyridin-3-yl)methanone]
Second: Cc1cccn2nc([C@@H]3c4nc[nH]c4CCN3C(=O)c3nnc(-c4ccncc4)o3)cc12 [Example 850, (S)-(4-(4-methylpyrazolo[1,5-a]pyridin-2-yl)-6,7-dihydro-1H-imidazo[4,5-c]pyridin-5(4H)-yl)(5-(pyridin-4-yl)-1,3,4-oxadiazol-2-yl)methanone]
The AC50 of the first is higher: 500 to 1000 nM for the first, under 500 nM for the second.

Work on Cc1c([C@H]2c3nc[nH]c3CCN2C(=O)c2ocnc2C(F)F)nn2ccccc12 [Example 785, (R)-(4-(difluoromethyl)oxazol-5-yl)(4-(3-methylpyrazolo[1,5-a]pyridin-2-yl)-6,7-dihydro-1H-imidazo[4,5-c]pyridin-5(4H)-yl)methanone] yielded an AC50 of 1000 to 5000 nM.
